Reference: patent publication US9163027B2, “Substituted triazolo-pyrimidine compounds for modulating cell proliferation differentiation and survival” (STATegics, Inc., priority 2012, dated 2015)

Test system: PC12 cells
Experiment: PC12 cell survival under serum deprivation (CellTiter-Glo)
Format: cell-based, rat
Conditions: 72 h serum-free; NS = RLU increased <25% at 5 uM
Method: Each culture condition was performed in quadruplicate in each experiment and the mean values were calculated. The results represent mean±SEM of relative light unit values when compared to the mean values obtained in the presence of the medium alone. A total of 13 experiments were performed and the statistical significance was analyzed using GraphPad Prism software using ANOVA, followed by paired t-test. The symbol * indicates P-values <0.01.
PC12 cells were cultured in DMEM supplemented with 10% fetal calf serum and 5% horse serum. […] Cell viability was analyzed by CellTiter-Glo® reagent (Promega).
PC12 cells were cultured in DMEM supplemented with 10% fetal calf serum and 5% horse serum. […] Cell survival of the serum-starved cells was analyzed by CellTiter-Glo® reagent luminescence reading.
FIG. 2 illustrates neuroprotective effects of Compounds 1-5 when tested in PC12 cell protection assays. PC12 cells were subjected to serum deprivation as described under FIG. 1.
PC12 cells were cultured in DMEM supplemented with 10% fetal calf serum and 5% horse serum. […] Cell survival of the serum-starved cells was analyzed by CellTiter-Glo® reagent luminescence reading (relative light units, “RLU”). […] “NS” indicates RLU increased <25% when compounds were tested at 5 uM.

| Structure (SMILES) | PC12 cell proliferation (CellTiter-Glo ®) Concentration at which RLU increased >25% compared to medium control |
| --- | --- |
| Cc1cc(C)n2nc(SCCOC3CCCCC3)nc2n1 [Example 33, 2-{[2-(cyclohexyloxy)ethyl]sulfanyl}-5,7-dimethyl-[1,2,4]triazolo[1,5-a]pyrimidine] | NS (RLU increased <25% when compounds were tested at 5 uM) |
| Cc1cc(C)n2nc(SCCOc3ccncc3)nc2n1 [Example 31, 4-[2-({5,7-dimethyl-[1,2,4]triazolo[1,5-a]pyrimidin-2-yl}sulfanyl)ethoxy]pyridine] | NS (RLU increased <25% when compounds were tested at 5 uM) |
| Cc1cc(C)n2nc(SCCOc3ccc(F)c(Cl)c3)nc2n1 [Example 6] | <5 µM |
| Cc1cc(C)n2nc(SCCOc3ccc(CCN(C)C)cc3)nc2n1 [Example 32, (2-{4-[2-({5,7-dimethyl-[1,2,4]triazolo[1,5-a]pyrimidin-2-yl}sulfanyl)ethoxy]phenyl}ethyl)-dimethylamine] | NS (RLU increased <25% when compounds were tested at 5 uM) |

Same assay, conditions: Rattus norvegicus, PC-12; 72 h serum-free; NS = RLU increased <25% at 5 uM; read-out: PC12 cell proliferation (CellTiter-Glo ®) Concentration at which RLU increased >25% compared to medium control

| Structure (SMILES) | minimal effective concentration [µM] |
| --- | --- |
| CCc1cc(CC)n2nc(CCCN(CCO)c3ccc(F)cc3)nc2n1 [Example 20, 2-[(3-{5,7-diethyl-[1,2,4]triazolo[1,5-a]pyrimidin-2-yl}propyl)(4-fluorophenyl)amino]ethan-1-ol] | < 5 |
| Cc1cc(C)n2nc(SCCN(CCO)c3ccccc3)nc2n1 [Example 9, 2-{[2-({5,7-Dimethyl-[1,2,4]triazolo[1,5-a]pyrimidin-2-yl}sulfanyl)ethyl](phenyl)amino}ethan-1-ol] | < 5 |
| CC(C)c1cc(C(C)C)n2nc(CCCOc3ccc(F)cc3)nc2n1 [Example 29, 2-[3-(4-fluorophenoxy)propyl]-5,7-bis(propan-2-yl)-[1,2,4]triazolo[1,5-a]pyrimidine] | < 5 |
| Cc1cc(C)n2nc(SCCOc3ccc(F)c(F)c3)nc2n1 [Example 7, 2-{[2-(3,4-difluorophenoxy)ethyl]sulfanyl}-5,7-dimethyl-[1,2,4]triazolo[1,5-a]pyrimidine] | < 5 |
| Cc1cc(C)n2nc(SCCOc3ccc(F)cc3)nc2n1 [Example 3, 2-{[2-(4-fluorophenoxy)ethyl]sulfanyl}-5,7-dimethyl-[1,2,4]triazolo[1,5-a]pyrimidine] | < 5 |
| CCc1cc(CC)n2nc(OCCN(CCO)c3ccccc3)nc2n1 [Example 17, 2-{[2-({5,7-Diethyl-[1,2,4]triazolo[1,5-a]pyrimidin-2-yl}oxy)ethyl](phenyl)amino}ethan-1-ol] | < 5 |
| Cc1cc(C)n2nc(OCCCC3CCCC3)nc2n1 [Example 12, 2-(3-cyclopentylpropoxy)-5,7-dimethyl-[1,2,4]-triazolo[1,5-a]pyrimidine] | < 5 |
| Cc1cc(C)n2nc(OCCSc3ccc(Cl)cc3)nc2n1 [Example 35, 2-{2-[(4-chlorophenyl)sulfanyl]ethoxy}-5,7-dimethyl-[1,2,4]triazolo[1,5-a]pyrimidine] | < 5 |
| Fc1ccc(OCCCc2nc3nc(C(F)F)cc(C(F)F)n3n2)cc1 [Example 30, 5,7-bis(difluoromethyl)-2-[3-(4-fluorophenoxy)propyl]-[1,2,4]triazolo[1,5-a]pyrimidine] | < 5 |
| Clc1ccc(OCCSc2nc3ncccn3n2)cc1 [Example 25, 2-{[2-(4-chlorophenoxy)ethyl]sulfanyl}-[1,2,4]-triazolo[1,5-a]pyrimidine] | < 5 |
| Cc1ccn2nc(SCCOc3ccc(Cl)cc3)nc2n1 [Example 26, 2-{[2-(4-chlorophenoxy)ethyl]sulfanyl}-5-methyl-[1,2,4]triazolo[1,5-a]pyrimidine] | < 5 |
| Cc1cc(C)n2nc(SCCc3c[nH]c4ccccc34)nc2n1 [Example 34, 3-[2-({5,7-dimethyl-[1,2,4]triazolo[1,5-a]pyrimidin-2-yl}sulfanyl)ethyl]-1H-indole] | < 5 |
| FC(F)(F)c1cc(C(F)(F)F)n2nc(SCCOc3ccc(Cl)cc3)nc2n1 [Example 24, 2-{[2-(4-chlorophenoxy)ethyl]sulfanyl}-5,7-bis(trifluoromethyl)-[1,2,4]-triazolo[1,5-a]pyrimidine] | < 5 |
| Cc1cc(C(F)(F)F)n2nc(CCCOc3ccc(Cl)cc3)nc2n1 [Example 22, 2-[3-(4-chlorophenoxy)propyl]-5-methyl-7-(trifluoromethyl)-[1,2,4]triazolo[1,5-a]pyrimidine] | < 5 |
| Cc1ccnc2nc(SCCOc3ccc(Cl)cc3)nn12 [Example 27, 2-{[2-(4-chlorophenoxy)ethyl]sulfanyl}-7-methyl-[1,2,4]-triazolo[1,5-a]pyrimidine] | < 5 |
| Cc1cc(C)n2nc(SCCOc3ccc(Cl)c(Cl)c3)nc2n1 [Example 5, 2-{[2-(3,4-dichlorophenoxy)ethyl]sulfanyl}-5,7-dimethyl-[1,2,4]-triazolo[1,5-a]pyrimidine] | < 5 |
| CCc1cc(CC)n2nc(NCCOc3ccccc3)nc2n1 [Example 18, 5,7-diethyl-N-(2-phenoxyethyl)-[1,2,4]triazolo[1,5-a]pyrimidin-2-amine] | < 5 |
| CCc1ccc(OCCSc2nc3nc(C)cc(C)n3n2)cc1 [Example 8, 2-{[2-(4-ethylphenoxy)ethyl]sulfanyl}-5,7-dimethyl-[1,2,4]triazolo[1,5-a]pyrimidine] | < 5 |
| CCc1cc(CC)n2nc(OCCOc3ccc(Cl)cc3)nc2n1 [Example 16, 5,7-diethyl-2-[-2-(4-chlorophenoxy)ethoxy]-[1,2,4]triazolo[1,5-a]pyrimidine] | < 5 |
| Cc1cc(C)n2nc(NCCOc3ccc(Cl)cc3)nc2n1 [Example 19, N-[2-(4-chlorophenoxy)ethyl]-5,7-dimethyl-[1,2,4]triazolo[1,5-a]pyrimidin-2-amine] | < 5 |
| Cc1cc(C(F)(F)F)n2nc(SCCOc3ccc(Cl)cc3)nc2n1 [Example 23, 2-{[2-(4-chlorophenoxy)ethyl]sulfanyl}-5-methyl-7-(trifluoromethyl)-[1,2,4]-triazolo[1,5-a]pyrimidine] | < 5 |
| CCc1cc(CC)n2nc(OCCN(CCO)c3ccc(F)cc3)nc2n1 [Example 14, 2-{[2-({5,7-diethyl-[1,2,4]triazolo[1,5-a]pyrimidin-2-yl}oxy)ethyl](4-fluorophenyl)amino}ethan-1-ol] | < 5 |
| CCc1cc(CC)n2nc(OCCOc3ccc(F)cc3)nc2n1 [Example 15, 5,7-diethyl-2-[2-(4-fluorophenoxy)ethoxy]-[1,2,4]triazolo[1,5-a]pyrimidine] | < 5 |
| Cc1cc(C)n2nc(SCCOc3ccccc3)nc2n1 [Example 2, 5,7-dimethyl-2-[(2-phenoxyethyl)sulfanyl]-[1,2,4]-triazolo[1,5-a]pyrimidine] | < 5 |
| Cc1cc(C)n2nc(SCCOc3ccc(Cl)c(F)c3)nc2n1 [Example 4, 2-{[2-(4-chloro-3-fluorophenoxy)ethyl]sulfanyl}-5,7-dimethyl-[1,2,4]triazolo[1,5-a]pyrimidine] | < 5 |
| CCc1cc(CC)n2nc(CCCN(CCOC(C)=O)c3ccc(F)cc3)nc2n1 [Example 21, 2-[(3-{5,7-diethyl-[1,2,4]triazolo[1,5-a]pyrimidin-2-yl}propyl)(4-fluorophenyl)amino]ethyl acetate] | < 5 |
